According to paper PMC8655237 (Journal of Advanced Research, 2021):
Where two headings read alike, the source gives them in different places.

How the values were obtained:
FaDu = experiment: MTT antiproliferative assay; format: cell-based; details: Homo sapiens, 24 h, read-out: IC50 (MTT)
A431 [1] = experiment: MTT antiproliferative assay; format: cell-based; details: Homo sapiens, A-431, 24 h, read-out: IC50 (MTT)
PC-3 [2] = experiment: NRU antiproliferative assay; format: cell-based; details: Homo sapiens, PC-3, 24 h, read-out: IC50 (NRU)
A431 [3] = experiment: NRU antiproliferative assay; format: cell-based; details: Homo sapiens, A-431, 24 h, read-out: IC50 (NRU)
A549 [4] = experiment: NRU antiproliferative assay; format: cell-based; details: Homo sapiens, A549, 24 h, read-out: IC50 (NRU)
PC-3 [5] = experiment: SRB antiproliferative assay; format: cell-based; details: Homo sapiens, PC-3, 24 h, read-out: IC50 (SRB)
COX-2 [6] = target: T1, COX-2 (Homo sapiens, UniProt P35354); experiment: COX-2 assay, cell-free; format: biochemical
T1 sequence (P35354 18-604): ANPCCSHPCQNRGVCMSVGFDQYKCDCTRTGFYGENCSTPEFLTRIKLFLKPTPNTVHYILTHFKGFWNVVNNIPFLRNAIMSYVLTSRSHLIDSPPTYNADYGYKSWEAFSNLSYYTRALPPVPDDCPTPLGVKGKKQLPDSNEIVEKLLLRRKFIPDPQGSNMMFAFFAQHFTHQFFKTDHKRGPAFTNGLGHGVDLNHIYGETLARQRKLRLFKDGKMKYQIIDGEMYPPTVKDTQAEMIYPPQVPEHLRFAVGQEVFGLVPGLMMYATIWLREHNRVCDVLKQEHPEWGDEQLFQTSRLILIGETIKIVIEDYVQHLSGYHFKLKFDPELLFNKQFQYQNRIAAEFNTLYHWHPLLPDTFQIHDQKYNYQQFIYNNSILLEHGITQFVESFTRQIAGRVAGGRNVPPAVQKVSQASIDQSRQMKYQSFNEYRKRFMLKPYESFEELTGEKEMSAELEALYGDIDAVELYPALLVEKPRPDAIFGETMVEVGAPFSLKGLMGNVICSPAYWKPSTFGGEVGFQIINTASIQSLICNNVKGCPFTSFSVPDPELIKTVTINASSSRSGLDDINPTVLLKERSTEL

COX-2 [7] = target: T1, COX-2; experiment: cell-based; details: IC50 COX-2, cell based
[8] = system: Ornithine decarboxylase (ODC); experiment: ODC assay, cell-free; format: biochemical; details: read-out: IC50 ODC; cell free (In vitro)
hyaluronidase (HYAL) [9] = experiment: Hyaluronidase assay, cell-free; format: biochemical; details: cell-free system
hyaluronidase (HYAL) [10] = experiment: Hyaluronidase assay, cell-based; design: species or system human
COX-2 mRNA = experiment: Real-time qPCR expression analysis; format: cell-based, human; details: GAPDH internal control
CAT D mRNA = experiment: Real-time qPCR expression analysis; format: cell-based, human; details: GAPDH internal control
DHFR mRNA = experiment: Real-time qPCR expression analysis; format: cell-based, human; details: A549, with respect to control, GAPDH internal control
PC-3 [11] = experiment: Cell cycle analysis by flow cytometry; format: cell-based, human; details: PC-3, 24 h
A431 [12] = experiment: Cell cycle analysis by flow cytometry; format: cell-based, human; details: A431, 24 h
A549 [13] = experiment: Cell cycle analysis by flow cytometry; format: cell-based, human; details: A549, 24 h
A431 cells = experiment: DCFH-DA ROS assay; format: cell-based, human; details: A431, highest concentration, 24 h, spectrofluorometer
PI3K = PI3K quantification by ELISA in A431 cells; format: cell-based, human; details: A431, 100 µM, 24 h
HDAC-6 = HDAC-6 quantification by ELISA in A431 cells; format: cell-based, human; details: A431, 100 µM, 24 h
[14] = system: Ehrlich Ascites Carcinoma (EAC); experiment: Ehrlich ascites carcinoma; format: in vivo, Swiss albino mice; details: for reduction of EAC tumor cells (tumor growth inhibition): day 1-9
hyaluronidase = experiment: Hyaluronidase activity in EAC cells of treated mice; format: in vivo; details: 75 mg/kg bw, i.p.
HEK-293 = experiment: Cytotoxicity to normal cell line; format: cell-based, human; details: higher tested concentration (100 µM)
[15] = system: panel of organ-specific human cancer and normal cell lines; experiment: Antiproliferative activity over the cell line panel; format: cell-based; details: read-out: IC50 range in all the tested assay systems
Acute oral toxicity = format: in vivo, Swiss albino mice; details: up to 1000 mg/kg body weight
[16] = ref https://chem.nlm.nih.gov/chemidplus/rn/3623–51-6; cited from earlier work
Cathepsin D (CATD) [17] = target: T2, Cathepsin D (CATD) (Homo sapiens, UniProt P07339); experiment: Cathepsin D assay, cell-free
T2 sequence (P07339 65-412): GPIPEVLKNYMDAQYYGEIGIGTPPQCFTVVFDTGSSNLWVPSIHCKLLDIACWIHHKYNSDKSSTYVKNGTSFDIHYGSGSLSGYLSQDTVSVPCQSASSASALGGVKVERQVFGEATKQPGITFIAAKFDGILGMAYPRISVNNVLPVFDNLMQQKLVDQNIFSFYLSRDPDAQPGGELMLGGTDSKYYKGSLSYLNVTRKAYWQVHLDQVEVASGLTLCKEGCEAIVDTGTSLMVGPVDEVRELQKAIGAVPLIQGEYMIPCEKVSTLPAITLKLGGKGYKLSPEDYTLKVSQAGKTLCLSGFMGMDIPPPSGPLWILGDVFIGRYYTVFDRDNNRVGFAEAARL

LOX-5 = LOX-5 (Homo sapiens, UniProt P09917); experiment: LOX-5 assay, cell-based; details: IC50 LOX-5, cell based, K562
Sequence of LOX-5 (P09917 whole entry): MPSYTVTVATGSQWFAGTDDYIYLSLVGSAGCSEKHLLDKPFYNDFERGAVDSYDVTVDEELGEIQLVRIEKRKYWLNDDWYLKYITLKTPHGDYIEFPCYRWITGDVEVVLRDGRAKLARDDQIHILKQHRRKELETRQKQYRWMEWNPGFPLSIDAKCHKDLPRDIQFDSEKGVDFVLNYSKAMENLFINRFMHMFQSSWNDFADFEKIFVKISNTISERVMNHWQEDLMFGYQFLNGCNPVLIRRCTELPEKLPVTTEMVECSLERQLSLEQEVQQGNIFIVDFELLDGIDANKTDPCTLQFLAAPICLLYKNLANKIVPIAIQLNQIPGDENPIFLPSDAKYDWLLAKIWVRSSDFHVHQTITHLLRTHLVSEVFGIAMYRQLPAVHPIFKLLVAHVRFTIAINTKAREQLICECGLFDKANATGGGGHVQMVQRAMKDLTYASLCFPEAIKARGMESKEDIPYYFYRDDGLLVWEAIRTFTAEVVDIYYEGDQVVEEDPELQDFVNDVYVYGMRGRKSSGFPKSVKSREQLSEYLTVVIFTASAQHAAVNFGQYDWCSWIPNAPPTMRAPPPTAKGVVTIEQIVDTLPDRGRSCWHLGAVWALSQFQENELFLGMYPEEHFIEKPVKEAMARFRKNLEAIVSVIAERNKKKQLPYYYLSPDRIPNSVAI

Cathepsin D (CATD) [18] = target: T2, Cathepsin D (CATD); experiment: Cathepsin D assay, cell-based; details: IC50 CAT D
[19] = MDA-MB-231, with respect to control

For CC(C)[C@@H]1CC[C@@H](C)C[C@@H]1O [neomenthol, (+)-Neomenthol], the IC50 (FaDu) was 99.31 ± 0.59 µM, the IC50 (A431 [1]) was 17.3 ± 6.49 µM and the IC50 (PC-3 [2]) was 84.6 ± 1.81 µM. For the same compound, the IC50 (A431 [3]) was 18.5 ± 3.66 µM, the IC50 (A549 [4]) was 48.1 ± 4.97 µM and the IC50 (PC-3 [5]) was 16.4 ± 3.87 µM. For the same compound, the IC50 (COX-2 [6]) was 81.01 ± 0.59 µM, the IC50 (COX-2 [7]; A431) was 39.1 ± 6.39 µM and the IC50 (COX-2 [7]; FaDu) was 87.2 ± 5.24 µM. The IC50 (COX-2 [7]; PC-3) was 62.2 ± 10.7 µM, the IC50 [8] was 20.2 ± 1.09 µM and the “inhibition of hyaluronidase enzyme activity” value (hyaluronidase (HYAL) [9]) was 24.9 ± 4.31%. The IC50 (hyaluronidase (HYAL) [10]; read-out: IC50 HYAL, A431) was 12.81 ± 0.01 µM, the IC50 (hyaluronidase (HYAL) [10]; read-out: IC50 HYAL, A549) was 36.8 ± 5.65 µM and the “COX-2 mRNA expression level” value (COX-2 mRNA; A431, with respect to control) was 1.34 fold change. The “COX-2 mRNA expression level” value (COX-2 mRNA; A549, with respect to control) was 1.09 fold change, the “COX-2 mRNA expression level” value (COX-2 mRNA; FaDu, with respect to control) was 1.38 fold change and the “COX-2 mRNA expression level” value (COX-2 mRNA; [19]) was 1.16 fold change. For the same compound, the “COX-2 mRNA expression level” value (COX-2 mRNA; PC-3, with respect to control) was 1.19 fold change, the “CAT D mRNA expression level” value (CAT D mRNA; A431, with respect to control) was 1.19 fold change and the “CAT D mRNA expression level” value (CAT D mRNA; A549, with respect to control) was 1.37 fold change. The “CAT D mRNA expression level” value (CAT D mRNA; FaDu, with respect to control) was 1.31 fold change, the “CAT D mRNA expression level” value (CAT D mRNA; K562, with respect to control) was 1.24 fold change and the “CAT D mRNA expression level” value (CAT D mRNA; [19]) was 1.15 fold change. The “CAT D mRNA expression level” value (CAT D mRNA; PC-3, with respect to control) was 1.35 fold change, the “DHFR mRNA expression level” value (DHFR mRNA) was 1.17 fold change and the “cell cycle phase arrested” value (PC-3 [11]) was “arrest of the G0/G1 phase”. The “cell cycle phase arrested” value (A431 [12]) was “G2/M phase”, the “cell cycle phase arrested” value (A549 [13]) was “G2/M phase” and the “percent increase in the ROS level” value (A431 cells) was 20.45 ± 0.35%. For the same compound, the “PI3K level (ng/mg of protein)” value (PI3K) was 0.006 ± 0.00021 ng/mg, the “HDAC-6 level (ng/mg of protein)” value (HDAC-6) was 0.104 ± 0.001 ng/mg and the “reduction of EAC tumor cells (tumor growth inhibition)” value ([14]; 50 mg/kg bw i.p.) was 23.98%. The “survival rate higher compared to EAC harbored mice” value ([14]; 75 mg/kg body weight) was 17%, the “survival of EAC harbored mice (survived till)” value ([14]; 75 mg/kg body weight, untreated EAC mice died within 24 days) was 27 days and the “reduction of EAC tumor cells (tumor growth inhibition)” value ([14]; 75 mg/kg bw i.p.) was 58.84%. For the same compound, the “inhibition (modulation) of hyaluronidase activity in EAC cells of mice” value (hyaluronidase) was “up to 10%”, the “cytotoxicity to HEK-293” value (HEK-293) was “non-cytotoxic” and the IC50 [15] was 16.4 to 99.3 µM. For the same compound, the “acute oral toxicity outcome” value (Acute oral toxicity) was “safe and non-toxic”, the LD50 [16] was 4000 mg/kg and the IC50 (Cathepsin D (CATD) [17]) was 30.4 ± 6.44 µM. The IC50 (LOX-5) was 72.2 ± 2.19 µM, the IC50 (Cathepsin D (CATD) [18]; A549) was 62 ± 2.08 µM and the IC50 (Cathepsin D (CATD) [18]; FaDu) was 74.62 ± 0.21 µM. It also gave an IC50 (Cathepsin D (CATD) [18]; K562) of 57.5 ± 14 µM.
